PMC4072317 (Food chemistry, 2013)
Like-named read-outs stand apart in the source and are kept apart here.

How the values were obtained:
[1] = test system: human intestinal Caco-2 cell membranes; conditions: ref Yi et al., 2006; cited from earlier work
[2] = for ACNs in I.E. as % of input: fed state (high fat meal), ileal efflux over 4 h, mean ± range, two experiments
[3] = for hourly bioaccessibility as a percentage of anthocyanin input: fasted state, 4 h
[4] = test system: mice with diet-induced diabetes; conditions: orally administered, ref Grace et al., 2009; cited from earlier work

| SMILES | transport efficiency in Caco-2 cells [1] | ACNs in I.E. as % of input [2] | further results |
| --- | --- | --- | --- |
| OC[C@H]1O[C@@H](Oc2cc3c(O)cc(O)cc3[o+]c2-c2cc(O)c(O)c(O)c2)[C@H](O)[C@@H](O)[C@@H]1O [dp-3-Glucoside, delphinidin-3-glucoside] | lower transport efficiency | – | – |
| COc1cc(-c2[o+]c3cc(O)cc(O)c3cc2O[C@@H]2O[C@H](COC(C)=O)[C@H](O)[C@H](O)[C@H]2O)cc(OC)c1O [mal-3-(6″-Acetoyl)-galactoside] | – | 2.4 ± 0.9 % of input | – |
| COc1cc(-c2[o+]c3cc(O)cc(O)c3cc2O[C@@H]2OC[C@H](O)[C@H](O)[C@H]2O)cc(OC)c1O [mal-3-Arabinoside, malvidin-3-arabinoside] | – | 2.6 ± 0.4 % of input | total bioaccessibility in the fasted state relative to the fed state ([3]; fasted vs fed (high fat meal), Tables 1 and 2): twice as bioaccessible |
| COc1cc(-c2[o+]c3cc(O)cc(O)c3cc2O[C@@H]2O[C@H](CO)[C@H](O)[C@H](O)[C@H]2O)cc(OC)c1O [mal-3-Galactoside] | – | 2.6 ± 0.8 % of input | – |
| COc1cc(-c2[o+]c3cc(O)cc(O)c3cc2O[C@@H]2O[C@H](CO)[C@@H](O)[C@H](O)[C@H]2O)cc(OC)c1O [mal-3-Glucoside, malvidin-3-glucoside] | highest transport efficiency | 3.2 ± 0.1 % of input | hourly bioaccessibility as a percentage of anthocyanin input ([3]; ileal samples): 0.3%; hourly bioaccessibility as a percentage of anthocyanin input ([3]; jejunum): 0.8%; hypoglycemic effect [4]: hypoglycemic |
| COc1cc(-c2[o+]c3cc(O)cc(O)c3cc2O[C@@H]2OC[C@H](O)[C@H](O)[C@H]2O)cc(O)c1O.[Cl-] [pt-3-Arabinoside, petunidin-3-arabinoside] | – | 4.5 ± 1.5 % of input | total bioaccessibility in the fed state relative to the fasted state ([2]; fed (high fat meal) vs fasted, Tables 1 and 2): twice as bioaccessible |
